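96-well plates; 48 h exposure; 5 concentrations. Endpoints by linear interpolation between flanking doses. Not reached: highest tested concentration assigned. Abbreviation: GI50, concentration required for 50% inhibition of growth. TGI denotes the concentration required for complete inhibition of growth.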
Legend:
Experiment in all cases: NCI tumour cell line growth inhibition, 48 h
[1] = tested on: SNB-75 CNS
[2] = tested on: BT-549 breast
[3] = tested on: HCT-116 colon
[4] = tested on: EKVX NSCLC
[5] = tested on: SNB-19 CNS
[6] = tested on: COLO 205 colon
[7] = tested on: IGROV1 ovarian
[8] = tested on: SW-620 colon
[9] = tested on: SN12C renal
[10] = tested on: SK-MEL-5 melanoma

CCOC(=O)c1cc2c(n1Cc1cc(OC)cc(OC)c1)-c1oncc1CC2
GI50 [1]: 0.111 µM
TGI [1]: > 100 µM
GI50 [2]: 4.37 µM
TGI [2]: > 100 µM
GI50 [3]: 0.157 µM
TGI [3]: > 100 µM
GI50 [4]: 0.32 µM
TGI [4]: > 100 µM
GI50 [5]: 0.544 µM
TGI [5]: > 100 µM
GI50 [6]: 0.182 µM
TGI [6]: 0.616 µM
GI50 [7]: 0.226 µM
TGI [7]: > 100 µM
GI50 [8]: 0.0859 µM
TGI [8]: > 100 µM
GI50 [9]: 0.994 µM
TGI [9]: > 100 µM
GI50 [10]: 0.0827 µM
TGI [10]: 20.3 µM

NC(=O)c1ncn2c(=O)n(CCCl)nnc12
GI50 [1]: 23.7 µM
TGI [1]: 205 µM
TGI [2]: 306 µM
TGI [3]: 369 µM
TGI [4]: 436 µM
GI50 [5]: 69 µM
TGI [5]: 995 µM
TGI [6]: 305 µM
TGI [7]: 482 µM
GI50 [8]: 51.2 µM
TGI [8]: 822 µM
TGI [9]: 546 µM
TGI [10]: 324 µM

COc1ccc2c(c1)C(=O)c1c-2n(CCCCl)c(=O)c2cc(N)ccc12
GI50 [1]: > 51.7 µM
TGI [1]: > 85.7 µM
GI50 [2]: > 100 µM
TGI [2]: > 100 µM
GI50 [3]: > 57.9 µM
TGI [3]: > 100 µM
GI50 [4]: > 100 µM
TGI [4]: > 100 µM
GI50 [5]: > 100 µM
TGI [5]: > 100 µM
GI50 [6]: > 100 µM
TGI [6]: > 100 µM
GI50 [7]: > 100 µM
TGI [7]: > 100 µM
GI50 [8]: > 68.1 µM
TGI [8]: > 100 µM
TGI [9]: 97.4 µM
GI50 [10]: 51 µM
TGI [10]: > 100 µM

NS(=O)(=O)c1cc(C(=O)O)c(Cl)c([N+](=O)[O-])c1Cl
TGI [1]: > 100 µM
TGI [2]: > 100 µM
TGI [3]: > 100 µM
TGI [4]: > 100 µM
TGI [5]: > 100 µM
TGI [6]: > 100 µM
TGI [7]: > 100 µM
TGI [8]: > 100 µM
TGI [9]: > 100 µM
TGI [10]: > 100 µM

CN(C)C/C=C/C(=O)Nc1cc2c(Nc3cccc(Cl)c3F)ncnc2cc1OCCOC(F)F
GI50 [1]: 0.494 µM
TGI [1]: 3.79 µM
GI50 [2]: 2.02 µM
TGI [2]: 9.57 µM
GI50 [3]: 1.87 µM
TGI [3]: 11 µM
TGI [4]: 6.1 µM
GI50 [5]: 1.97 µM
TGI [5]: 13.3 µM
GI50 [6]: 1.69 µM
TGI [6]: 6.35 µM
GI50 [7]: < 0.0142 µM
TGI [7]: 1.07 µM
GI50 [8]: 2.05 µM
TGI [8]: 11.6 µM
GI50 [9]: 0.317 µM
TGI [9]: 7.15 µM
GI50 [10]: 2.46 µM
TGI [10]: 7.87 µM

NCCCNc1nc2ccccc2c2c(=O)c3cc(F)cc(Cl)c3sc12
GI50 [1]: 1.54 µM
TGI [1]: 2.96 µM
GI50 [2]: 12.9 µM
TGI [2]: 26.7 µM
GI50 [3]: 1.72 µM
TGI [3]: 3.12 µM
GI50 [4]: 1.56 µM
TGI [4]: 3.07 µM
GI50 [5]: 1.77 µM
TGI [5]: 3.33 µM
GI50 [6]: 1.92 µM
TGI [6]: 4.41 µM
GI50 [7]: 1.58 µM
TGI [7]: 3.12 µM
GI50 [8]: 1.7 µM
TGI [8]: 3.28 µM
GI50 [9]: 1.71 µM
TGI [9]: 3.24 µM
GI50 [10]: 6.5 µM
TGI [10]: 20.3 µM

CC1(C)CN(CCNc2nccc(-c3c(-c4cccc(O)c4)nc4sccn34)n2)S(=O)(=O)N1
GI50 [1]: 5.14 µM
TGI [1]: > 33.2 µM
GI50 [2]: > 22.5 µM
TGI [2]: > 33.2 µM
GI50 [3]: 5.05 µM
TGI [3]: > 33.2 µM
GI50 [4]: > 33.2 µM
TGI [4]: > 33.2 µM
GI50 [5]: > 33.2 µM
TGI [5]: > 33.2 µM
GI50 [6]: 0.448 µM
TGI [6]: 7.25 µM
GI50 [7]: 6.58 µM
TGI [7]: > 33.2 µM
GI50 [8]: 15.7 µM
TGI [8]: > 33.2 µM
GI50 [9]: 9.86 µM
TGI [9]: > 33.2 µM
GI50 [10]: 1.29 µM
TGI [10]: 12.5 µM

O=C1c2ccccc2C(=O)c2sc(Nc3ccc([N+](=O)[O-])cc3)nc21
TGI [1]: 21.1 µM
TGI [2]: 27.4 µM
TGI [3]: 15.2 µM
TGI [4]: 23.2 µM
TGI [5]: 25.7 µM
TGI [6]: 19 µM
TGI [7]: 26.2 µM
TGI [8]: 8.48 µM
TGI [9]: 8.15 µM
TGI [10]: 6.38 µM

CCN(CC)CCCC(C)Nc1ccnc(/C=C/c2ccc(Cl)cc2)c1 (stereo unspecified)
TGI [1]: 4.5 µM
TGI [2]: 8.39 µM
TGI [3]: 3.22 µM
TGI [4]: 15.6 µM
TGI [5]: 16.6 µM
TGI [6]: 3.01 µM
TGI [7]: 9.47 µM
TGI [8]: 3.91 µM
TGI [9]: 10.9 µM
TGI [10]: 6.17 µM

CC1(C)CC[C@]2(CO)CC[C@]3(C)C(=CC[C@@H]4[C@@]5(C)CCNCC(C)(C)[C@@H]5CC[C@]43C)[C@@H]2C1
GI50 [1]: 10.1 µM
TGI [1]: 23 µM
GI50 [2]: 4.79 µM
TGI [2]: 18.3 µM
GI50 [3]: 3.13 µM
TGI [3]: 12.4 µM
GI50 [4]: 9.55 µM
TGI [4]: 23.2 µM
GI50 [5]: 12.8 µM
TGI [5]: 26.8 µM
GI50 [6]: 1.9 µM
TGI [6]: 4 µM
GI50 [7]: 6.83 µM
TGI [7]: 21 µM
GI50 [8]: 1.97 µM
TGI [8]: 4.41 µM
GI50 [9]: 4.08 µM
TGI [9]: 16.9 µM
GI50 [10]: 1.86 µM
TGI [10]: 3.64 µM

CC(=O)O[C@H]1CC[C@]2(C)C3C(=O)C[C@]4(C)[C@@H](C(C)CCC(=O)O)CC[C@@]4(C)[C@@H]3CC[C@H]2C1(C)C (stereo partly specified)
GI50 [1]: 42.7 µM
TGI [1]: > 50 µM
GI50 [2]: 17 µM
TGI [2]: 39.4 µM
GI50 [3]: 9.37 µM
TGI [3]: 20.5 µM
GI50 [4]: 10.2 µM
TGI [4]: 36.8 µM
GI50 [5]: 21 µM
TGI [5]: > 50 µM
GI50 [6]: 20.9 µM
TGI [6]: > 50 µM
GI50 [7]: 34.7 µM
TGI [7]: > 50 µM
GI50 [8]: 19.4 µM
TGI [8]: > 50 µM
GI50 [9]: > 50 µM
TGI [9]: > 50 µM
GI50 [10]: 8.53 µM
TGI [10]: 17.5 µM

CCC(=C(c1ccc(OCCN2CCCC2)cc1)c1ccc(OCCN2CCCC2)cc1)c1ccc(Cl)cc1
GI50 [1]: 0.921 µM
TGI [1]: 2.61 µM
GI50 [2]: 0.733 µM
TGI [2]: 1.86 µM
GI50 [3]: 0.545 µM
TGI [3]: 1.05 µM
GI50 [4]: 0.666 µM
TGI [4]: 1.4 µM
GI50 [5]: 0.624 µM
TGI [5]: 1.19 µM
GI50 [6]: 0.615 µM
TGI [6]: 1.25 µM
GI50 [7]: 0.582 µM
TGI [7]: 1.1 µM
GI50 [8]: 0.554 µM
TGI [8]: 1.09 µM
GI50 [9]: 0.572 µM
TGI [9]: 1.1 µM
GI50 [10]: 0.6 µM
TGI [10]: 1.07 µM

O=C(COc1cccc(/C=C2\Oc3ccc4ccccc4c3C2=O)c1)c1ccc([N+](=O)[O-])cc1
GI50 [1]: 18.9 µM
TGI [1]: 53 µM
GI50 [2]: 17.3 µM
TGI [2]: 37.6 µM
GI50 [3]: 16.5 µM
TGI [3]: 40.9 µM
GI50 [4]: > 100 µM
TGI [4]: > 100 µM
GI50 [5]: 34.1 µM
TGI [5]: > 100 µM
GI50 [6]: 21.8 µM
TGI [6]: > 100 µM
GI50 [7]: 6.76 µM
TGI [7]: 40.7 µM
GI50 [8]: 14 µM
TGI [8]: 27 µM
GI50 [9]: 13.9 µM
TGI [9]: 32.5 µM
GI50 [10]: 13 µM
TGI [10]: 34.8 µM

From PubChem BioAssay (NCI)
